In PubChem BioAssay AID220 (DTP/NCI, 2004):
Several values for one entry are separate records, joined by “and”; a condition that tells them apart may be missing. Equal values may be shown once. Results filed as inconclusive are left out.

Tested on: CD8F1 mice, subcutaneous mammary adenocarcinoma, T/C%
Assay: NCI In Vivo Anticancer Drug Screen. Data for tumor model Mammary Adenocarcinoma CD8F1 (subcutaneous) in CD8F1
Details: higher = larger tumour
How it was run: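 Transplantable tumors were established in mice, animals were dosed with compound or vehicle, and survival or tumor size was then measured in both groups. The treated result was divided by the control result.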

[1] = endpoint: median tumor weight (est.), dose: 12.5 mg/kg/injection, schedule: Q07DX005 (ip), vehicle: suspension in saline
[2] = endpoint: median tumor weight (est.), dose: 25.0 mg/kg/injection, schedule: Q07DX005 (ip), vehicle: suspension in saline
[3] = endpoint: median tumor weight (est.), dose: 50.0 mg/kg/injection, schedule: Q07DX005 (ip), vehicle: suspension in saline
[4] = endpoint: median tumor weight (est.), dose: 100.0 mg/kg/injection, schedule: Q07DX005 (ip), vehicle: suspension in saline
[5] = endpoint: median tumor weight change, dose: 1000.0 mg/kg/injection, schedule: Q01DX001 (ip), vehicle: saline with Tween-80
[6] = endpoint: median tumor weight (est.), dose: 20.0 mg/kg/injection, schedule: Q07DX005 (ip), vehicle: Klucel (hydroxypropylcellulose) (HPC)
[7] = endpoint: median tumor weight (est.), dose: 25.0 mg/kg/injection, schedule: Q07DX005 (ip), vehicle: saline
[8] = endpoint: median tumor weight (est.), dose: 50.0 mg/kg/injection, schedule: Q07DX005 (ip), vehicle: saline
[9] = endpoint: median tumor weight (est.), dose: 100.0 mg/kg/injection, schedule: Q07DX005 (ip), vehicle: saline
[10] = endpoint: median tumor weight change, dose: 0.31 mg/kg/injection, schedule: Q01DX001 (ip), vehicle: saline
[11] = endpoint: median tumor weight change, dose: 0.62 mg/kg/injection, schedule: Q01DX001 (ip), vehicle: saline

CC(=O)NNC(=O)c1ccccn1
T/C (endpoint: mean tumor weight, dose: 25.0 mg/kg/injection, schedule: Q01DX009 (ip), vehicle: saline): 28 % of control
T/C (endpoint: mean tumor weight, dose: 50.0 mg/kg/injection, schedule: Q07DX004 (ip), vehicle: saline): 112 % of control
T/C (endpoint: mean tumor weight, dose: 100.0 mg/kg/injection, schedule: Q01DX009 (ip), vehicle: saline): 32 % of control
T/C (endpoint: mean tumor weight, dose: 100.0 mg/kg/injection, schedule: Q07DX004 (ip), vehicle: saline): 74 % of control
T/C (endpoint: mean tumor weight, dose: 100.0 mg/kg/injection, schedule: Q07DX005 (ip), vehicle: saline): 99 % of control
T/C (endpoint: mean tumor weight, dose: 200.0 mg/kg/injection, schedule: Q07DX004 (ip), vehicle: saline): 56 % of control
T/C (endpoint: mean tumor weight, dose: 200.0 mg/kg/injection, schedule: Q07DX005 (ip), vehicle: saline): 82 % of control

c1ccc(CN2CCOC2)cc1
T/C [1]: 51 % of control
T/C [2]: 43 % of control
T/C [3]: 62 % of control
T/C [4]: 87 % of control

O=c1cc(-c2ccccc2)[nH]c2c1CCCC2
T/C [5]: 78 % of control

CC(C)CC(=O)NC(C(=O)NC(C(=O)NC(CC(C)C)C(O)CC(=O)NC(C)C(=O)NC(CC(C)C)C(O)CC(=O)O)C(C)C)C(C)C (stereo not given)
T/C (endpoint: median tumor weight change, dose: 62.5 mg/kg/injection, schedule: Q01DX001 (ip), vehicle: Klucel (hydroxypropylcellulose) (HPC)): 97 % of control

O=C1N=C(Oc2ccccc2)SC1=O
T/C (endpoint: median tumor weight change, dose: 62.5 mg/kg/injection, schedule: Q01DX001 (ip), vehicle: saline with Tween-80): 43 % of control
T/C (endpoint: median tumor weight change, dose: 125.0 mg/kg/injection, schedule: Q01DX001 (ip), vehicle: DMSO): 66 % of control

CC[C@@]1(O)C(=O)OCc2c1cc1n(c2=O)Cc2cc3ccccc3nc2-1
T/C (endpoint: median tumor weight change, dose: 1.5 mg/kg/injection, schedule: Q01DX001 (ip), vehicle: saline with Tween-80): 64 % of control
T/C (endpoint: median tumor weight change, dose: 6.0 mg/kg/injection, schedule: Q01DX001 (ip), vehicle: saline with Tween-80): 56 % of control and 73 % of control
T/C (endpoint: median tumor weight change, dose: 12.0 mg/kg/injection, schedule: Q01DX001 (ip), vehicle: saline with Tween-80): 62 % of control
T/C (endpoint: median tumor weight change, dose: 24.0 mg/kg/injection, schedule: Q01DX001 (ip), vehicle: saline with Tween-80): 5 % of control and 10 % of control

CN(C)N=Nc1cccc(C(N)=O)c1
T/C [6]: 80 % of control
T/C (endpoint: median tumor weight (est.), dose: 160.0 mg/kg/injection, schedule: Q07DX005 (ip), vehicle: Klucel (hydroxypropylcellulose) (HPC)): 54 % of control

CN(C=O)C(C(=O)Nc1cccc2c(OC(=O)C(N(C)C=O)(N(C)C=O)N(C)C=O)c(N=Nc3ccc(S(=O)(=O)Nc4nccs4)cc3)cc(N=Nc3ccc(S(=O)(=O)Nc4nccs4)cc3)c12)(N(C)C=O)N(C)C=O (tested in a mixture with another compound)
T/C (endpoint: median tumor weight change, dose: 250.0 mg/kg/injection, schedule: Q01DX001 (ip), vehicle: saline with Tween-80): 100 % of control
T/C [5]: 119 % of control
T/C (endpoint: median tumor weight change, dose: 2000.0 mg/kg/injection, schedule: Q01DX001 (ip), vehicle: saline with Tween-80): 63 % of control

CCCCOC(=O)/C=C(\Br)C(=O)OCCCC
T/C (endpoint: median tumor weight (est.), dose: 12.5 mg/kg/injection, schedule: Q07DX005 (ip), vehicle: saline with Tween-80): 115 % of control
T/C (endpoint: median tumor weight (est.), dose: 25.0 mg/kg/injection, schedule: Q07DX005 (ip), vehicle: saline with Tween-80): 95 % of control and 119 % of control
T/C (endpoint: median tumor weight (est.), dose: 100.0 mg/kg/injection, schedule: Q07DX005 (ip), vehicle: saline with Tween-80): 100 % of control and 119 % of control
T/C (endpoint: median tumor weight (est.), dose: 200.0 mg/kg/injection, schedule: Q07DX005 (ip), vehicle: saline with Tween-80): 114 % of control

ClC(Cl)=C(Cl)Cl
T/C (endpoint: median tumor weight change, dose: 62.5 mg/kg/injection, schedule: Q01DX001 (ip), vehicle: other): 157 % of control
T/C (endpoint: median tumor weight change, dose: 125.0 mg/kg/injection, schedule: Q01DX001 (ip), vehicle: other): 191 % of control

O=c1[nH]c2c(ccc3cnccc32)c2c1CCC2
T/C (endpoint: median tumor weight (est.), dose: 6.25 mg/kg/injection, schedule: Q07DX005 (ip), vehicle: saline): 119 % of control
T/C [1]: 80 % of control
T/C [7]: 162 % of control
T/C [2]: 80 % of control
T/C [8]: 114 % of control
T/C [3]: 59 % of control
T/C [9]: 164 % of control
T/C [4]: 77 % of control

CNC(=O)/C=C/C1=CN2C(=O)c3ccc(C)c(O)c3NC(OC)C2C1 (stereo not given)
T/C (endpoint: median tumor weight change, dose: 0.03 mg/kg/injection, schedule: Q01DX001 (ip), vehicle: suspension in saline): 70 % of control
T/C (endpoint: median tumor weight change, dose: 0.07 mg/kg/injection, schedule: Q01DX001 (ip), vehicle: suspension in saline): 51 % of control
T/C [10]: 150 % of control
T/C [11]: 83 % of control

NC(=O)c1ccc[n+](Cc2c(Cl)cccc2Cl)c1
T/C (endpoint: median tumor weight (est.), dose: 3.0 mg/kg/injection, schedule: Q07DX005 (ip), vehicle: saline): 171 % of control
T/C (endpoint: median tumor weight (est.), dose: 6.0 mg/kg/injection, schedule: Q07DX005 (ip), vehicle: saline): 102 % of control
T/C (endpoint: median tumor weight (est.), dose: 12.0 mg/kg/injection, schedule: Q07DX005 (ip), vehicle: saline): 211 % of control
T/C (endpoint: median tumor weight (est.), dose: 48.0 mg/kg/injection, schedule: Q07DX005 (ip), vehicle: saline): 186 % of control

COc1cc2cc(c1Cl)N(C)C(=O)CC(OC(=O)CC(C)C)C1(C)OC1C(C)C1CC(O)(NC(=O)O1)C(OC)/C=C/C=C(C)C2 (stereo not given)
T/C (endpoint: median tumor weight (est.), dose: 18.7 micrograms/kg/injection, schedule: Q07DX005 (ip), vehicle: saline + alcohol): 76 % of control
T/C (endpoint: median tumor weight (est.), dose: 37.5 micrograms/kg/injection, schedule: Q07DX005 (ip), vehicle: saline + alcohol): 80 % of control
T/C (endpoint: median tumor weight (est.), dose: 75.0 micrograms/kg/injection, schedule: Q07DX005 (ip), vehicle: saline + alcohol): 85 % of control

CSc1ncnc2c1ncn2C1OC(CO)C(O)C1O (stereo not given)
T/C (endpoint: median tumor weight change, dose: 16.0 mg/kg/injection, schedule: Q01DX001 (ip), vehicle: saline + alcohol): 67 % of control
T/C (endpoint: median tumor weight change, dose: 31.0 mg/kg/injection, schedule: Q01DX001 (ip), vehicle: saline + alcohol): 82 % of control
T/C (endpoint: median tumor weight change, dose: 62.0 mg/kg/injection, schedule: Q01DX001 (ip), vehicle: saline + alcohol): 52 % of control
T/C (endpoint: median tumor weight change, dose: 62.5 mg/kg/injection, schedule: Q01DX001 (ip), vehicle: saline + alcohol): 79 % of control
T/C (endpoint: median tumor weight change, dose: 125.0 mg/kg/injection, schedule: Q01DX001 (ip), vehicle: saline + alcohol): 52 % of control and 70 % of control
T/C (endpoint: median tumor weight change, dose: 250.0 mg/kg/injection, schedule: Q01DX001 (ip), vehicle: saline + alcohol): 10 % of control and 12 % of control

Nc1ncnc2c1ncn2C1OC(CO)CC1O (stereo not given)
T/C (endpoint: median tumor weight (est.), dose: 37.5 mg/kg/injection, schedule: Q07DX005 (ip), vehicle: Klucel (hydroxypropylcellulose) (HPC)): 102 % of control
T/C (endpoint: median tumor weight (est.), dose: 75.0 mg/kg/injection, schedule: Q07DX005 (ip), vehicle: Klucel (hydroxypropylcellulose) (HPC)): 88 % of control

O=C(Nc1ccc(N=C=S)cc1Cl)c1cc(Cl)cc(Cl)c1O
T/C (endpoint: median tumor weight (est.), dose: 12.5 mg/kg/injection, schedule: Q07DX005 (ip), vehicle: Klucel (hydroxypropylcellulose) (HPC)): 79 % of control
T/C (endpoint: median tumor weight (est.), dose: 12.5 mg/kg/injection, schedule: Q07DX005 (ip), vehicle: saline): 118 % of control
T/C (endpoint: median tumor weight (est.), dose: 25.0 mg/kg/injection, schedule: Q07DX005 (ip), vehicle: Klucel (hydroxypropylcellulose) (HPC)): 49 % of control
T/C [7]: 96 % of control
T/C (endpoint: median tumor weight (est.), dose: 50.0 mg/kg/injection, schedule: Q07DX005 (ip), vehicle: Klucel (hydroxypropylcellulose) (HPC)): 26 % of control
T/C [8]: 111 % of control
T/C [9]: 78 % of control

c1ccc2c(NCCCCCCCCNc3c4ccccc4nc4ccccc34)c3ccccc3nc2c1
T/C (endpoint: median tumor weight (est.), dose: 5.0 mg/kg/injection, schedule: Q07DX005 (ip), vehicle: Klucel (hydroxypropylcellulose) (HPC)): 72 % of control
T/C (endpoint: median tumor weight (est.), dose: 10.0 mg/kg/injection, schedule: Q07DX005 (ip), vehicle: Klucel (hydroxypropylcellulose) (HPC)): 56 % of control
T/C [6]: 57 % of control
T/C (endpoint: median tumor weight (est.), dose: 40.0 mg/kg/injection, schedule: Q07DX005 (ip), vehicle: Klucel (hydroxypropylcellulose) (HPC)): 46 % of control

CC1=C[C@@]23[C@H](C=C(C(=O)O)[C@@H]2COC(=O)[C@]32CO2)[C@@H]1C
T/C [10]: 116 % of control
T/C [11]: 115 % of control
T/C (endpoint: median tumor weight change, dose: 1.25 mg/kg/injection, schedule: Q01DX001 (ip), vehicle: saline): 98 % of control
T/C (endpoint: median tumor weight change, dose: 2.5 mg/kg/injection, schedule: Q01DX001 (ip), vehicle: saline): 85 % of control
T/C (endpoint: median tumor weight change, dose: 5.0 mg/kg/injection, schedule: Q01DX001 (ip), vehicle: saline): 100 % of control

NC(CNC(=O)CBr)C(=O)O (stereo not given)
T/C (endpoint: median tumor weight change, dose: 62.5 mg/kg/injection, schedule: Q01DX001 (ip), vehicle: water): 95 % of control
T/C (endpoint: median tumor weight change, dose: 125.0 mg/kg/injection, schedule: Q01DX001 (ip), vehicle: water): 77 % of control
